For 25 compounds, AC50 results are on record in patent publication US20250171437A1 (Agios Pharmaceuticals,Inc., priority 2022, published 2025).

The target in the test is T1, human PAH with the R408W mutation (A375 R408W cells) (Homo sapiens, UniProt P00439, R408W).
T1 construct: expressed in transfected cells
T1 sequence (P00439 1-452 R408W): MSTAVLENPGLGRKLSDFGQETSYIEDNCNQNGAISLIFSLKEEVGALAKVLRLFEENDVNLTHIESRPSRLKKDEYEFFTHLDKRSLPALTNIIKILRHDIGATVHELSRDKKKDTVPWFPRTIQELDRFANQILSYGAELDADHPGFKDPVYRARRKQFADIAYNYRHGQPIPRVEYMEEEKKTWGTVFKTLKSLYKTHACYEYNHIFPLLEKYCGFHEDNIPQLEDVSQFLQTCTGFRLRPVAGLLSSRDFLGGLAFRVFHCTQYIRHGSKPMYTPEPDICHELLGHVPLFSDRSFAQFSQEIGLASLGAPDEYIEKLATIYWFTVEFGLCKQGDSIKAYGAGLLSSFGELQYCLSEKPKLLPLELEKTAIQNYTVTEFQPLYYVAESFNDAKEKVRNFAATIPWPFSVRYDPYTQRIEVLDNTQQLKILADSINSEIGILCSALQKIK
Description: Cell Based Phenylalanine Flux Assay. Particulars: A375 R408W cells; 24 hrs with compound, then 20 μM sepiapterin and 800 μM 13C9,15N-Phenylalanine for 4 hours; 13C-Tyrosine by LC-MS; average where tested multiple times. Put shortly:
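Phenylalanine-to-tyrosine flux is measured in A375 cells carrying stable human R408W PAH. After 24 h compound exposure, 13C9,15N-Phe (800 μM) with sepiapterin (20 μM) is supplied for 4 h and media 13C-Tyr is read by LC-MS; AC50s are binned.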
For orientation: AC50 means the concentration at which the activity in the assay is half-maximal. With `CC(C)(O)c1nc(C(F)F)c(C(=O)N2CCc3[nH]cnc3[C@H]2c2nc3cc(F)cc(F)c3o2)o1` [Example 307, (S)-(4-(5,7-difluorobenzo[d]oxazol-2-yl)-6,7-dihydro-1H-imidazo[4,5-c]pyridin-5(4H)-yl)(4-(difluoromethyl)-2-(2-hydroxypropan-2-yl)oxazol-5-yl)methanone], the AC50 is ≤ 500 nM.
The value for `CC(C)(O)c1nc(C(F)F)c(C(=O)N2CCc3[nH]cnc3[C@@H]2c2nc3cc(F)cc(F)c3o2)o1` [Example 308, (R)-(4-(5,7-difluorobenzo[d]oxazol-2-yl)-6,7-dihydro-1H-imidazo[4,5-c]pyridin-5(4H)-yl)(4-(difluoromethyl)-2-(2-hydroxypropan-2-yl)oxazol-5-yl)methanone] was ≤ 500 nM; that for `O=C(c1ocnc1C(F)F)N1CCc2[nH]cnc2[C@H]1c1nc2cc(F)cc(F)c2o1` [Example 309, (S)-(4-(5,7-difluorobenzo[d]oxazol-2-yl)-6,7-dihydro-1H-imidazo[4,5-c]pyridin-5(4H)-yl)(4-(difluoromethyl)oxazol-5-yl)methanone] was ≤ 500 nM.
In the case of `O=C(c1ocnc1C(F)F)N1CCc2[nH]cnc2[C@@H]1c1nc2cc(F)cc(F)c2o1` [Example 310, (R)-(4-(5,7-difluorobenzo[d]oxazol-2-yl)-6,7-dihydro-1H-imidazo[4,5-c]pyridin-5(4H)-yl)(4-(difluoromethyl)oxazol-5-yl)methanone] it was 500 to 1000 nM; in that of `Cc1ccc2oc([C@@H]3c4nc[nH]c4CCN3C(=O)c3oc(C(C)(C)O)nc3C(F)F)nc2c1` [Example 311, (S)-(4-(difluoromethyl)-2-(2-hydroxypropan-2-yl)oxazol-5-yl)(4-(5-methylbenzo[d]oxazol-2-yl)-6,7-dihydro-1H-imidazo[4,5-c]pyridin-5(4H)-yl)methanone], ≤ 500 nM; in that of `Cc1ccc2oc([C@H]3c4nc[nH]c4CCN3C(=O)c3oc(C(C)(C)O)nc3C(F)F)nc2c1` [Example 312, (R)-(4-(difluoromethyl)-2-(2-hydroxypropan-2-yl)oxazol-5-yl)(4-(5-methylbenzo[d]oxazol-2-yl)-6,7-dihydro-1H-imidazo[4,5-c]pyridin-5(4H)-yl)methanone], 500 to 1000 nM.
As to `Cc1ccc2oc([C@@H]3c4nc[nH]c4CCN3C(=O)c3ccnn3C(F)F)nc2c1` [Example 313, (S)-(1-(difluoromethyl)-1H-pyrazol-5-yl)(4-(5-methylbenzo[d]oxazol-2-yl)-6,7-dihydro-1H-imidazo[4,5-c]pyridin-5(4H)-yl)methanone], the AC50 was ≤ 500 nM.
Regarding `Cc1ccc2oc([C@H]3c4nc[nH]c4CCN3C(=O)c3ccnn3C(F)F)nc2c1` [Example 314, (R)-(1-(difluoromethyl)-1H-pyrazol-5-yl)(4-(5-methylbenzo[d]oxazol-2-yl)-6,7-dihydro-1H-imidazo[4,5-c]pyridin-5(4H)-yl)methanone], the AC50 is 500 to 1000 nM.
As for `Cc1ccc2nc([C@@H]3c4nc[nH]c4CCN3C(=O)c3oc(C(C)(C)O)nc3C(F)F)oc2c1` [Example 315, (S)-(4-(difluoromethyl)-2-(2-hydroxypropan-2-yl)oxazol-5-yl)(4-(6-methylbenzo[d]oxazol-2-yl)-6,7-dihydro-1H-imidazo[4,5-c]pyridin-5(4H)-yl)methanone], the AC50 is ≤ 500 nM.
In the case of `Cc1ccc2nc([C@H]3c4nc[nH]c4CCN3C(=O)c3oc(C(C)(C)O)nc3C(F)F)oc2c1` [Example 316, (R)-(4-(difluoromethyl)-2-(2-hydroxypropan-2-yl)oxazol-5-yl)(4-(6-methylbenzo[d]oxazol-2-yl)-6,7-dihydro-1H-imidazo[4,5-c]pyridin-5(4H)-yl)methanone] it was 1000 to 5000 nM.
In the case of `Cc1ccc2nc([C@@H]3c4nc[nH]c4CCN3C(=O)c3ccnn3C(F)F)oc2c1` [Example 317, (S)-(1-(difluoromethyl)-1H-pyrazol-5-yl)(4-(6-methylbenzo[d]oxazol-2-yl)-6,7-dihydro-1H-imidazo[4,5-c]pyridin-5(4H)-yl)methanone] it was ≤ 500 nM; in that of `Cc1ccc2nc([C@H]3c4nc[nH]c4CCN3C(=O)c3ccnn3C(F)F)oc2c1` [Example 318, (R)-(1-(difluoromethyl)-1H-pyrazol-5-yl)(4-(6-methylbenzo[d]oxazol-2-yl)-6,7-dihydro-1H-imidazo[4,5-c]pyridin-5(4H)-yl)methanone], 500 to 1000 nM.
In the case of `Cc1ccc2nc([C@@H]3c4nc[nH]c4CCN3C(=O)c3oc(C(C)(C)O)nc3C)oc2c1` [Example 319, (S)-(2-(2-hydroxypropan-2-yl)-4-methyloxazol-5-yl)(4-(6-methylbenzo[d]oxazol-2-yl)-6,7-dihydro-1H-imidazo[4,5-c]pyridin-5(4H)-yl)methanone], the AC50 was 500 to 1000 nM.
In the case of `Cc1ccc2nc([C@H]3c4nc[nH]c4CCN3C(=O)c3oc(C(C)(C)O)nc3C)oc2c1` [Example 320, (R)-(2-(2-hydroxypropan-2-yl)-4-methyloxazol-5-yl)(4-(6-methylbenzo[d]oxazol-2-yl)-6,7-dihydro-1H-imidazo[4,5-c]pyridin-5(4H)-yl)methanone] it was ≥ 5000 nM; in that of `Cn1ccc(-c2nnc(C(=O)N3CCc4[nH]cnc4[C@H]3c3nc4ccc(F)cc4o3)o2)n1` [Example 321, (S)-(4-(6-fluorobenzo[d]oxazol-2-yl)-6,7-dihydro-1H-imidazo[4,5-c]pyridin-5(4H)-yl)(5-(1-methyl-1H-pyrazol-3-yl)-1,3,4-oxadiazol-2-yl)methanone], 500 to 1000 nM.
The value for `Cn1ccc(-c2nnc(C(=O)N3CCc4[nH]cnc4[C@@H]3c3nc4ccc(F)cc4o3)o2)n1` [Example 322, (R)-(4-(6-fluorobenzo[d]oxazol-2-yl)-6,7-dihydro-1H-imidazo[4,5-c]pyridin-5(4H)-yl)(5-(1-methyl-1H-pyrazol-3-yl)-1,3,4-oxadiazol-2-yl)methanone] was 1000 to 5000 nM.
For `Cc1ccc2c(C(=O)N3CCc4[nH]cnc4[C@H]3c3nc4cccc(F)c4o3)cnn2c1` [Example 323, (S)-(4-(7-fluorobenzo[d]oxazol-2-yl)-6,7-dihydro-1H-imidazo[4,5-c]pyridin-5(4H)-yl)(6-methylpyrazolo[1,5-a]pyridin-3-yl)methanone], the AC50 was ≤ 500 nM.
In the case of `Cc1ccc2c(C(=O)N3CCc4[nH]cnc4[C@@H]3c3nc4cccc(F)c4o3)cnn2c1` [Example 324, (R)-(4-(7-fluorobenzo[d]oxazol-2-yl)-6,7-dihydro-1H-imidazo[4,5-c]pyridin-5(4H)-yl)(6-methylpyrazolo[1,5-a]pyridin-3-yl)methanone] it was 1000 to 5000 nM; in that of `COc1ccc2c(C(=O)N3CCc4[nH]cnc4[C@H]3c3nc4cccc(F)c4o3)cnn2c1` [Example 325, (S)-(4-(7-fluorobenzo[d]oxazol-2-yl)-6,7-dihydro-1H-imidazo[4,5-c]pyridin-5(4H)-yl)(6-methoxypyrazolo[1,5-a]pyridin-3-yl)methanone], ≤ 500 nM.
In the case of `COc1ccc2c(C(=O)N3CCc4[nH]cnc4[C@@H]3c3nc4cccc(F)c4o3)cnn2c1` [Example 326, (R)-(4-(7-fluorobenzo[d]oxazol-2-yl)-6,7-dihydro-1H-imidazo[4,5-c]pyridin-5(4H)-yl)(6-methoxypyrazolo[1,5-a]pyridin-3-yl)methanone] it was 1000 to 5000 nM.
The value for `CC(C)(O)c1nc(C(F)F)c(C(=O)N2CCc3[nH]cnc3[C@H]2c2nc3cc(C(F)(F)F)ccc3o2)o1` [Example 327, (S)-(4-(difluoromethyl)-2-(2-hydroxypropan-2-yl)oxazol-5-yl)(4-(5-(trifluoromethyl)benzo[d]oxazol-2-yl)-6,7-dihydro-1H-imidazo[4,5-c]pyridin-5(4H)-yl)methanone] was ≤ 500 nM; that for `CC(C)(O)c1nc(C(F)F)c(C(=O)N2CCc3[nH]cnc3[C@@H]2c2nc3cc(C(F)(F)F)ccc3o2)o1` [Example 328, (R)-(4-(difluoromethyl)-2-(2-hydroxypropan-2-yl)oxazol-5-yl)(4-(5-(trifluoromethyl)benzo[d]oxazol-2-yl)-6,7-dihydro-1H-imidazo[4,5-c]pyridin-5(4H)-yl)methanone] was ≤ 500 nM.
Take `O=C(c1ocnc1C(F)F)N1CCc2[nH]cnc2[C@H]1c1nc2cc(C(F)(F)F)ccc2o1` [Example 329, (S)-(4-(difluoromethyl)oxazol-5-yl)(4-(5-(trifluoromethyl)benzo[d]oxazol-2-yl)-6,7-dihydro-1H-imidazo[4,5-c]pyridin-5(4H)-yl)methanone]: the AC50 was ≤ 500 nM.
Take `O=C(c1ocnc1C(F)F)N1CCc2[nH]cnc2[C@@H]1c1nc2cc(C(F)(F)F)ccc2o1` [Example 330, (R)-(4-(difluoromethyl)oxazol-5-yl)(4-(5-(trifluoromethyl)benzo[d]oxazol-2-yl)-6,7-dihydro-1H-imidazo[4,5-c]pyridin-5(4H)-yl)methanone]: the AC50 was ≤ 500 nM.
The value for `Cc1ccc2oc([C@@H]3c4nc[nH]c4CCN3C(=O)c3oc(C(C)(C)O)nc3C)nc2c1` [Example 331, (S)-(2-(2-hydroxypropan-2-yl)-4-methyloxazol-5-yl)(4-(5-methylbenzo[d]oxazol-2-yl)-6,7-dihydro-1H-imidazo[4,5-c]pyridin-5(4H)-yl)methanone] was 500 to 1000 nM.
